Measurements taken from the supplement of paper PMC10733146.

Key:
Test in all cases: viability relative to DMSO control (fraction); higher = less drug effect (more viable cells)
Conditions in all cases: 48 h
[1] = test system: primary AML patient cells (S056)
Summary of the method: (§1)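 Using 384-well plates with compounds already plated at five concentrations, one well per concentration, 4 × 10^4 primary mononuclear tumour cells were added per well. Cells were Ficoll-isolated from blood or bone marrow or came from processed lymph node, fresh or cryopreserved. They were kept for 48 h at 37 °C and 5% CO2 in RPMI-1640 supplemented with penicillin/streptomycin, L-glutamine and human serum, and viability was read as CellTiter-Glo luminescence relative to the median of 16 inner DMSO wells.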

[2] = test system: primary AML patient cells (S085)
Summary of the method: as §1

[3] = test system: primary FL patient cells (S087)
Summary of the method: as §1

[4] = test system: primary CLL patient cells (S031)
Summary of the method: as §1

[5] = test system: primary T-NHL patient cells (S058)
Summary of the method: as §1

[6] = test system: primary AML patient cells (S019)
Summary of the method: as §1

[7] = test system: primary MCL patient cells (S041)
Summary of the method: as §1

[8] = test system: primary AML patient cells (S012)
Summary of the method: as §1

[9] = test system: primary AML patient cells (S006)
Summary of the method: as §1

[10] = test system: primary FL patient cells (S022)
Summary of the method: as §1

[11] = test system: primary DLBCL patient cells (S049)
Summary of the method: as §1

[12] = test system: primary MCL patient cells (S063)
Summary of the method: as §1

[13] = test system: primary ALL patient cells (S048)
Summary of the method: as §1

[14] = test system: primary AML patient cells (S011)
Summary of the method: as §1

[15] = test system: primary DLBCL patient cells (S076)
Summary of the method: as §1

[16] = test system: primary ALL patient cells (S088)
Summary of the method: as §1

[17] = test system: primary AML patient cells (S079)
Summary of the method: as §1

## N#CC[C@H](C1CCCC1)n1cc(-c2ncnc3[nH]ccc23)cn1 [Ruxolitinib]
[1]; 0.024 µM
  viability: 0.954
[1]; 0.12 µM
  viability: 0.894
[1]; 0.6 µM
  viability: 0.814
[1]; 3 µM
  viability: 0.891
[1]; 15 µM
  viability: 0.69
[2]; 0.024 µM
  viability: 1.42
[2]; 0.12 µM
  viability: 0.921
[2]; 0.6 µM
  viability: 0.861
[2]; 3 µM
  viability: 0.806
[2]; 15 µM
  viability: 0.651
[3]; 0.024 µM
  viability: 1.02
[3]; 0.12 µM
  viability: 0.929
[3]; 0.6 µM
  viability: 0.942
[3]; 3 µM
  viability: 0.962
[3]; 15 µM
  viability: 0.871
[4]; 0.024 µM
  viability: 1.06
[4]; 0.12 µM
  viability: 1
[4]; 0.6 µM
  viability: 1.04
[4]; 3 µM
  viability: 0.896
[4]; 15 µM
  viability: 0.689
[5]; 0.024 µM
  viability: 0.983
[5]; 0.12 µM
  viability: 0.887
[5]; 0.6 µM
  viability: 0.924
[5]; 3 µM
  viability: 0.904
[5]; 15 µM
  viability: 0.8
[6]; 0.024 µM
  viability: 1.09
[6]; 0.12 µM
  viability: 0.873
[6]; 0.6 µM
  viability: 1.03
[6]; 3 µM
  viability: 0.849
[6]; 15 µM
  viability: 0.716
[7]; 0.024 µM
  viability: 1.02
[7]; 0.12 µM
  viability: 0.972
[7]; 0.6 µM
  viability: 0.997
[7]; 3 µM
  viability: 1.01
[7]; 15 µM
  viability: 0.952
[8]; 0.024 µM
  viability: 0.973
[8]; 0.12 µM
  viability: 0.973
[8]; 0.6 µM
  viability: 1.03
[8]; 3 µM
  viability: 0.951
[8]; 15 µM
  viability: 0.846
[9]; 0.024 µM
  viability: 1.04
[9]; 0.12 µM
  viability: 0.921
[9]; 0.6 µM
  viability: 0.963
[9]; 3 µM
  viability: 0.904
[9]; 15 µM
  viability: 0.656
[10]; 0.024 µM
  viability: 0.968
[10]; 0.12 µM
  viability: 0.882
[10]; 0.6 µM
  viability: 1.05
[10]; 3 µM
  viability: 0.908
[10]; 15 µM
  viability: 0.893
[11]; 0.024 µM
  viability: 1.03
[11]; 0.12 µM
  viability: 0.91
[11]; 0.6 µM
  viability: 0.994
[11]; 3 µM
  viability: 0.981
[11]; 15 µM
  viability: 1
[12]; 0.024 µM
  viability: 1.02
[12]; 0.12 µM
  viability: 0.939
[12]; 0.6 µM
  viability: 0.975
[12]; 3 µM
  viability: 0.932
[12]; 15 µM
  viability: 0.875
[13]; 0.024 µM
  viability: 1.03
[13]; 0.12 µM
  viability: 0.945
[13]; 0.6 µM
  viability: 0.963
[13]; 3 µM
  viability: 0.988
[13]; 15 µM
  viability: 0.852
[14]; 0.024 µM
  viability: 1.26
[14]; 0.12 µM
  viability: 0.955
[14]; 0.6 µM
  viability: 1.06
[14]; 3 µM
  viability: 0.919
[14]; 15 µM
  viability: 0.743
[15]; 0.024 µM
  viability: 1.05
[15]; 0.12 µM
  viability: 0.823
[15]; 0.6 µM
  viability: 0.82
[15]; 3 µM
  viability: 0.702
[15]; 15 µM
  viability: 0.719
[16]; 0.024 µM
  viability: 0.974
[16]; 0.12 µM
  viability: 0.912
[16]; 0.6 µM
  viability: 0.994
[16]; 3 µM
  viability: 0.986
[16]; 15 µM
  viability: 0.94
[17]; 0.024 µM
  viability: 0.979
[17]; 0.12 µM
  viability: 0.845
[17]; 0.6 µM
  viability: 0.808
[17]; 3 µM
  viability: 0.774
[17]; 15 µM
  viability: 0.724
